Measured values reported in patent US20260226493A1, “HERBICIDE RESISTANT PLANTS” (SYNGENTA CROP PROTECTION AG, priority 2023, published 2026).

Legend:
Assay in all cases: BIO3-BIO1 mutant enzyme activity in the presence of herbicide, percentage inhibition (fluorometric DAPA assay)
Type in all cases: biochemical
Details in all cases: read-out: percentage inhibition
[1] = target: T1, Arabidopsis thaliana BIO3-BIO1 (BioDA) mutants (Arabidopsis thaliana, UniProt B0F481, F348S)
T1 construct: with the predicted N-terminal mitochondrial transit peptide removed; 6xHis-tag (N); thrombin cleavage site (N); made in house; host or cells: E. coli BL21 (DE3) bioA
T1 sequence (B0F481 23-833 F348S): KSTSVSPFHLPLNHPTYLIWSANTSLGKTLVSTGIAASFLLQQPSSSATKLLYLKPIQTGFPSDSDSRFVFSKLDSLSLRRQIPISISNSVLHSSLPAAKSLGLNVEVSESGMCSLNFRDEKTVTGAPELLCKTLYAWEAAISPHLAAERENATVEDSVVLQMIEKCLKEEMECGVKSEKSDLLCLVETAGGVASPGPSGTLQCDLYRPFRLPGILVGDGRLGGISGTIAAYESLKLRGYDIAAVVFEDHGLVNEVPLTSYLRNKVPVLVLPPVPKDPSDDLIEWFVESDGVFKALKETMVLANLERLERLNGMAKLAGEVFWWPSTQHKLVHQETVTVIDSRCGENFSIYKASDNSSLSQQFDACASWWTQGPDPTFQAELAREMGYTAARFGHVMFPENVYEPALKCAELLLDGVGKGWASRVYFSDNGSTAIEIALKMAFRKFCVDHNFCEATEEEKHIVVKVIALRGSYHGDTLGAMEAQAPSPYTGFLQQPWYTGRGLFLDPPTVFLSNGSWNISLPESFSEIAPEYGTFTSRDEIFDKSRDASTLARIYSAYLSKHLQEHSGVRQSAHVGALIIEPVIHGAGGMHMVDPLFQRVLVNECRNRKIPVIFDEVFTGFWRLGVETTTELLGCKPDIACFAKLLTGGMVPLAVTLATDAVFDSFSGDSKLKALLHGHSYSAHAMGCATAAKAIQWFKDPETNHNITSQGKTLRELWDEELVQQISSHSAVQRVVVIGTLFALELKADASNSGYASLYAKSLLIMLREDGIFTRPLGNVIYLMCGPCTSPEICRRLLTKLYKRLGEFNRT
Method in brief: (§1)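 His-tagged Arabidopsis BIO3-BIO1 mutants, expressed in E. coli and purified by IMAC and SEC, were preincubated at 50 nM with herbicide for 10 min at 20 °C in EPPS pH 8.6 with pyridoxal phosphate. Reaction with 100 μM spermidine and 20 μM KAPA ran 75 min at 20 °C; DAPA was derivatised with o-phthalaldehyde and read at ex 410/em 470 nm. […].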

[2] = target: T2, Arabidopsis thaliana BIO3-BIO1 (BioDA) mutants (Arabidopsis thaliana, UniProt B0F481, V354T)
T2 construct: with the predicted N-terminal mitochondrial transit peptide removed; 6xHis-tag (N); thrombin cleavage site (N); made in house; host or cells: E. coli BL21 (DE3) bioA
T2 sequence (B0F481 23-833 V354T): as the sequence (B0F481 23-833 F348S) above, with S326F, V332T counted along it
Method in brief: as §1

[3] = target: T3, Arabidopsis thaliana BIO3-BIO1 (BioDA) mutants (Arabidopsis thaliana, UniProt B0F481, A609Y)
T3 construct: with the predicted N-terminal mitochondrial transit peptide removed; 6xHis-tag (N); thrombin cleavage site (N); made in house; host or cells: E. coli BL21 (DE3) bioA
T3 sequence (B0F481 23-833 A609Y): as the sequence (B0F481 23-833 F348S) above, with S326F, A587Y counted along it
Method in brief: as §1

[4] = target: T4, Arabidopsis thaliana BIO3-BIO1 (BioDA) mutants (Arabidopsis thaliana, UniProt B0F481, Y511D)
T4 construct: with the predicted N-terminal mitochondrial transit peptide removed; 6xHis-tag (N); thrombin cleavage site (N); made in house; host or cells: E. coli BL21 (DE3) bioA
T4 sequence (B0F481 23-833 Y511D): as the sequence (B0F481 23-833 F348S) above, with S326F, Y489D counted along it
Method in brief: as §1

[5] = target: T5, Arabidopsis thaliana BIO3-BIO1 (BioDA) mutants (Arabidopsis thaliana, UniProt B0F481, R797Q)
T5 construct: with the predicted N-terminal mitochondrial transit peptide removed; 6xHis-tag (N); thrombin cleavage site (N); made in house; host or cells: E. coli BL21 (DE3) bioA
T5 sequence (B0F481 23-833 R797Q): as the sequence (B0F481 23-833 F348S) above, with S326F, R775Q counted along it
Method in brief: as §1

[6] = target: T6, Arabidopsis thaliana BIO3-BIO1 (BioDA) mutants (Arabidopsis thaliana, UniProt B0F481, S509D)
T6 construct: with the predicted N-terminal mitochondrial transit peptide removed; 6xHis-tag (N); thrombin cleavage site (N); made in house; host or cells: E. coli BL21 (DE3) bioA
T6 sequence (B0F481 23-833 S509D): as the sequence (B0F481 23-833 F348S) above, with S326F, S487D counted along it
Method in brief: as §1

[7] = target: T7, Arabidopsis thaliana BIO3-BIO1 (BioDA) mutants (Arabidopsis thaliana, UniProt B0F481, P421E)
T7 construct: with the predicted N-terminal mitochondrial transit peptide removed; 6xHis-tag (N); thrombin cleavage site (N); made in house; host or cells: E. coli BL21 (DE3) bioA
T7 sequence (B0F481 23-833 P421E): as the sequence (B0F481 23-833 F348S) above, with S326F, P399E counted along it
Method in brief: as §1

[8] = target: T8, Arabidopsis thaliana BIO3-BIO1 (BioDA) mutants (Arabidopsis thaliana, UniProt B0F481, A609T)
T8 construct: with the predicted N-terminal mitochondrial transit peptide removed; 6xHis-tag (N); thrombin cleavage site (N); made in house; host or cells: E. coli BL21 (DE3) bioA
T8 sequence (B0F481 23-833 A609T): as the sequence (B0F481 23-833 F348S) above, with S326F, A587T counted along it
Method in brief: as §1

[9] = target: T9, Arabidopsis thaliana BIO3-BIO1 (BioDA) mutants (Arabidopsis thaliana, UniProt B0F481, A609V)
T9 construct: with the predicted N-terminal mitochondrial transit peptide removed; 6xHis-tag (N); thrombin cleavage site (N); made in house; host or cells: E. coli BL21 (DE3) bioA
T9 sequence (B0F481 23-833 A609V): as the sequence (B0F481 23-833 F348S) above, with S326F, A587V counted along it
Method in brief: as §1

[10] = target: T10, Arabidopsis thaliana BIO3-BIO1 (BioDA) mutants (Arabidopsis thaliana, UniProt B0F481, S704H)
T10 construct: with the predicted N-terminal mitochondrial transit peptide removed; 6xHis-tag (N); thrombin cleavage site (N); made in house; host or cells: E. coli BL21 (DE3) bioA
T10 sequence (B0F481 23-833 S704H): as the sequence (B0F481 23-833 F348S) above, with S326F, S682H counted along it
Method in brief: as §1

[11] = target: T11, Arabidopsis thaliana BIO3-BIO1 (BioDA) mutants (Arabidopsis thaliana, UniProt B0F481, P347A)
T11 construct: with the predicted N-terminal mitochondrial transit peptide removed; 6xHis-tag (N); thrombin cleavage site (N); made in house; host or cells: E. coli BL21 (DE3) bioA
T11 sequence (B0F481 23-833 P347A): as the sequence (B0F481 23-833 F348S) above, with P325A, S326F counted along it
Method in brief: as §1

[12] = target: T12, Arabidopsis thaliana BIO3-BIO1 (BioDA) mutants (Arabidopsis thaliana, UniProt B0F481, T512V)
T12 construct: with the predicted N-terminal mitochondrial transit peptide removed; 6xHis-tag (N); thrombin cleavage site (N); made in house; host or cells: E. coli BL21 (DE3) bioA
T12 sequence (B0F481 23-833 T512V): as the sequence (B0F481 23-833 F348S) above, with S326F, T490V counted along it
Method in brief: as §1

| Structure (SMILES) | inhibition at 0.2 µM [1] [%] | inhibition at 1 µM [1] [%] | inhibition at 5 µM [1] [%] | inhibition at 0.2 µM [2] [%] | inhibition at 1 µM [2] [%] | inhibition at 5 µM [2] [%] | inhibition at 0.2 µM [3] [%] | inhibition at 1 µM [3] [%] | inhibition at 5 µM [3] [%] | inhibition at 0.2 µM [4] [%] | inhibition at 1 µM [4] [%] | inhibition at 5 µM [4] [%] | inhibition at 1 µM [5] [%] | inhibition at 1 µM [6] [%] | inhibition at 1 µM [7] [%] | inhibition at 1 µM [8] [%] | inhibition at 1 µM [9] [%] | inhibition at 1 µM [10] [%] | inhibition at 1 µM [11] [%] | inhibition at 1 µM [12] [%] | other results |
| --- | --- | --- | --- | --- | --- | --- | --- | --- | --- | --- | --- | --- | --- | --- | --- | --- | --- | --- | --- | --- | --- |
| CCn1c(-c2ccc(Cl)c(Cl)c2)c(C(=O)O)c(=O)c2cc(F)ccc21 [Compound M, 2-(3,4-dichlorophenyl)-1-ethyl-6-fluoro-4-oxo-quinoline-3-carboxylic acid] | 6 | 4 | 25 | 4 | 47 | 88 | 0 | 4 | 45 | 38 | 81 | 96 | 5 | 80 | 47 | 39 | 44 | 0 | 26 | 77 | inhibition at 0.2 µM [5]: 0%; inhibition at 5 µM [5]: 30%; inhibition at 0.2 µM [6]: 48%; inhibition at 5 µM [6]: 98%; inhibition at 0.2 µM [7]: 0%; inhibition at 5 µM [7]: 62%; inhibition at 0.2 µM [8]: 8%; inhibition at 5 µM [8]: 67%; inhibition at 0.2 µM [9]: 22%; inhibition at 5 µM [9]: 75%; inhibition at 0.2 µM [10]: 0%; inhibition at 5 µM [10]: 0%; inhibition at 0.2 µM [11]: 8%; inhibition at 5 µM [11]: 52%; inhibition at 0.2 µM [12]: 57%; inhibition at 5 µM [12]: 94% |
| CCn1c(C)c(-c2ccc(F)cc2F)c(=O)c(C(=O)O)c1-c1ccc(Cl)c(Cl)c1 [Compound C, 2-(3,4-dichlorophenyl)-5-(2,4-difluorophenyl)-1-ethyl-6-methyl-4-oxo-pyridine-3-carboxylic acid] | 9 | 7 | 22 | 0 | 56 | 92 | 0 | 0 | 43 | 68 | 93 | 99 | 32 | 91 | 31 | 37 | 11 | 0 | 27 | 81 | inhibition at 0.2 µM [5]: 7%; inhibition at 5 µM [5]: 52%; inhibition at 0.2 µM [6]: 59%; inhibition at 5 µM [6]: 103%; inhibition at 0.2 µM [7]: 37%; inhibition at 5 µM [7]: 0%; inhibition at 0.2 µM [8]: 12%; inhibition at 5 µM [8]: 64%; inhibition at 0.2 µM [9]: 0%; inhibition at 5 µM [9]: 58%; inhibition at 0.2 µM [10]: 0%; inhibition at 5 µM [10]: 0%; inhibition at 0.2 µM [11]: 3%; inhibition at 5 µM [11]: 51%; inhibition at 0.2 µM [12]: 51%; inhibition at 5 µM [12]: 96% |
| CCOC(=O)c1nn(-c2ccc3c(c2)OC(F)(F)C(F)(F)O3)c2cccc(C(C)=O)c2c1=O [Compound A, ethyl 5-acetyl-4-oxo-1-(2,2,3,3-tetrafluoro-1,4-benzodioxin-6-yl)cinnoline-3-carboxylate] | – | 3 | – | – | 61 | – | – | 0 | – | – | 10 | – | 35 | 9 | 0 | 0 | 5 | 0 | 20 | 58 | – |
| CCn1c(Cn2ccc(C(F)(F)F)n2)cc(=O)c(C(=O)O)c1-c1ccc(Cl)c(Cl)c1 [Compound L, 2-(3,4-dichlorophenyl)-1-ethyl-4-oxo-6-[[3-(trifluoromethyl)pyrazol-1-yl]methyl]pyridine-3-carboxylic acid] | – | – | – | – | – | – | – | – | – | – | – | – | – | – | – | – | – | – | – | – | inhibition at 0.01 µM [1]: 7%; inhibition at 0.075 µM [1]: 3%; inhibition at 0.5 µM [1]: 32%; inhibition at 0.01 µM [3]: 0%; inhibition at 0.075 µM [3]: 0%; inhibition at 0.5 µM [3]: 0%; inhibition at 0.01 µM [7]: 0%; inhibition at 0.075 µM [7]: 0%; inhibition at 0.5 µM [7]: 41%; inhibition at 0.01 µM [8]: 10%; inhibition at 0.075 µM [8]: 34%; inhibition at 0.5 µM [8]: 12%; inhibition at 0.01 µM [9]: 0%; inhibition at 0.075 µM [9]: 0%; inhibition at 0.5 µM [9]: 0%; inhibition at 0.01 µM [11]: 8%; inhibition at 0.075 µM [11]: 23%; inhibition at 0.5 µM [11]: 47% |
